Measurements published in the NIST ThermoML archive (doi:10.1021/je5008372).

Columns and labels:
[1] = refractive index (Na D-line) (dimensionless); mn = molality of the nth substance listed, in mol/kg; settings: 86.8 kPa, Liquid, Standard Abbe refractometry
[2] = mn = molality of the nth substance listed, in mol/kg; settings: 86.8 kPa, Liquid; for viscosity: Capillary tube (Ostwald / Ubbelohde) method; for speed of sound: Sing-around technique in a fixed-path interferometer; for mass density: Vibrating tube method
[3] = refractive index (Na D-line) (dimensionless); settings: 86.8 kPa, Liquid, Standard Abbe refractometry
[4] = 86.8 kPa, Liquid; for viscosity: Capillary tube (Ostwald / Ubbelohde) method; for speed of sound: Sing-around technique in a fixed-path interferometer; for mass density: Vibrating tube method

CCCCn1cc[n+](C)c1.[Br-] [1-butyl-3-methylimidazolium bromide] + CC#N
Settings | mass density, [2] [kg/m3] | refractive index, [1] | speed of sound, [2] [m/s] | viscosity, [2] [mPa·s]
288.15 K, m1 = 0.1046 | 796.218 | 1.3492 | 1323.5 | 0.4
288.15 K, m1 = 0.2021 | 803.662 | 1.3528 | 1327.1 | 0.421
288.15 K, m1 = 0.2996 | 810.75 | 1.3557 | 1330.3 | 0.44
298.15 K, m1 = 0.1046 | 785.312 | 1.3449 | 1283.2 | 0.363
298.15 K, m1 = 0.2021 | 792.989 | 1.3479 | 1287.1 | 0.38
298.15 K, m1 = 0.2996 | 800.167 | 1.3509 | 1290.3 | 0.398
308.15 K, m1 = 0.1046 | 774.491 | 1.3402 | 1243.2 | 0.331
308.15 K, m1 = 0.2021 | 782.263 | 1.3429 | 1247.2 | 0.346
308.15 K, m1 = 0.2996 | 789.528 | 1.3462 | 1250.6 | 0.361
318.15 K, m1 = 0.1046 | 763.59 | 1.3359 | 1203.1 | 0.304
318.15 K, m1 = 0.2021 | 771.427 | 1.3381 | 1207.3 | 0.318
318.15 K, m1 = 0.2996 | 778.947 | 1.3402 | 1210.8 | 0.331

CC#N [acetonitrile]
Settings | mass density, [4] [kg/m3] | refractive index, [3] | speed of sound, [4] [m/s] | viscosity, [4] [mPa·s]
288.15 K | 787.395 | 1.3461 | 1319.1 | 0.388
298.15 K | 776.615 | 1.3412 | 1278.6 | 0.344
308.15 K | 765.81 | 1.3371 | 1238.3 | 0.313
318.15 K | 754.851 | 1.3327 | 1198.2 | 0.289
